The target of one series is PPARγ (Homo sapiens (Human), UniProt P37231). Put plainly: PPARγ agonist assay (HTRF, PPARγ-NCOR interaction). Format: biochemical. As to conditions: read-out: PPAR γ assay (HTRF) for agonists of this nuclear receptor - IC50. The text has this:
Significant safety issues are associated with the clinical use of PPARγ agonists (increased risk of death, myocardial infarction, stroke, congestive heart failure, hepatotoxicity, peripheral edema, weight gain and carcinogenicity^1-4). We wanted to characterize the compounds we identified in a pilot screen as potential PPARγ agonists. The PPARγ assay is based on agonist-sensitive interaction of the GST-tagged ligand-binding domain (LRD) of the nuclear receptor PPARγ with the biotinylated corepressor NCOR peptide (FIG. 8).
Assay reactions are performed in a final volume of 16 ul.
In well of the 384-well assay plate, mix 6 ul of PPARγ solution, 4 ul of NCOR2 solution and 4 μl of Rosi solution. Test compounds diluted from DMSO stocks to 4× assay concentration in 1×HTRF, 100 mM KF buffer may be dispensed to well instead of Rosi. Negative control wells contained DMSO solvent alone; positive control well contained […]. […] Two μl of detection mix was added per well. […] The plate was incubated for 16 hrs at 4° C.
HTRF signal was measured in the SpectraMax M5e Multimode Plate Reader (Molecular Device). Fluorescence was excited at 337 nm. […] The signal was expressed as the ratio of fluorescence intensity: Flu668/Flu620×10,000. […]

For the next series, the target named is human RBP4 (Homo sapiens (Human), UniProt P02753). Put plainly: SPA binding assay for RBP4 (scintillation proximity, 3H-retinol displacement). As to conditions: 10 nM 3H-retinol, 50 nM biotinylated RBP4. As to the method: Scintillation Proximity RBP4 Binding Assay
Untagged human RBP4 purified from the urine of tubular proteinuria patients was purchased from Fitzgerald Industries International. It was biotinylated using the EZ-Link Sulfo-NHS-LC-Biotinylation kit from Pierce following the manufacturer's recommendations. […] Nonspecific binding was determined in the presence of 20 μM of unlabeled retinol. The reaction mix was assembled in the dark under dim red light. The plates were sealed with clear tape (TopSeal-A: 96-well microplate, PerkinElmer), wrapped in the aluminum foil, and allowed to equilibrate 6 hours at room temperature followed by overnight incubation at +4° C. Radiocounts were measured using a TopCount NXT counter (Packard Instrument Company).
(§1) The compounds listed below were tested in two in vitro assays, RBP4 binding (SPA) and retinol-dependent RBP4-TTR interaction (HTRF) (Table 1).

A further series addresses RBP4-TTR interaction (Homo sapiens (Human), UniProt P02753). Put plainly: HTRF (TR-FRET) assay for antagonists of retinol-induced RBP4-TTR interaction. Format: biochemical. As to conditions: in the presence of 1 μM retinol.
Description: TR-FRET Assay for Retinol-Induced RBP4-TTR Interaction
Binding of a desired RBP4 antagonist displaces retinol and induces hindrance for RBP4-TTR interaction resulting in the decreased FRET signal (FIG. 7). Bacterially expressed MBP-RBP4 and untagged TTR were used in this assay. For the use in the TR-FRET assay, the maltose binding protein (MBP)-tagged human RBP4 fragment (amino acids 19-201) was expressed in the Gold(DE3)pLysS E. coli strain (Stratagene) using the pMAL-c4x vector. Following cell lysis, recombinant RBP4 was purified from the soluble fraction using the ACTA FPLC system (GE Healthcare) equipped with the 5-ml the MBP Trap HP column. Human untagged TTR was purchased from Calbiochem. Untagged TTR was labeled directly with Eu^3+ Cryptate-NHS using the HTRF Cryptate Labeling kit from CisBio following the manufacturer's recommendations. HTRF assay was performed in white low volume 384 well plates (Greiner-Bio) in a final assay volume of 16 μl per well. […] Titration of test compounds in this assay was conducted in the presence of 1 μM retinol. […] TR-FRET signal was measured in the SpectraMax M5e Multimode Plate Reader (Molecular Device). […] The TR-FRET signal was expressed as the ratio of fluorescence intensity: Flu665/Flu620×10,000.
as §1

Series [1] is described as follows: Metabolic stability in liver microsomes (HLM). The series is classed as in vitro ADME, human. How it is done: (§2) The compounds listed below were tested in various metabolic stability and CYP inhibition assays.
On the technique in general: Liver microsomes are vesicles of endoplasmic reticulum, rich in cytochrome P450 enzymes.

For another series, the target named is CYP2D6 (Homo sapiens (Human), UniProt P10635). Nature of the series: CYP inhibition, fluorescent, CYP2D6. The series is classed as in vitro ADME. How it is done:
as §2

The next series addresses CYP2C19 (Homo sapiens (Human), UniProt P33261). Nature of the series: CYP inhibition, fluorescent, CYP2C19. Format: in vitro ADME. How it is done: as §2
The target of another series is CYP3A4 (Homo sapiens (Human), UniProt P08684). Nature of the series: CYP inhibition, fluorescent, CYP3A4. The series is classed as in vitro ADME. As to the method: as §2
Sequence of CYP3A4 (P08684 whole entry, species assumed): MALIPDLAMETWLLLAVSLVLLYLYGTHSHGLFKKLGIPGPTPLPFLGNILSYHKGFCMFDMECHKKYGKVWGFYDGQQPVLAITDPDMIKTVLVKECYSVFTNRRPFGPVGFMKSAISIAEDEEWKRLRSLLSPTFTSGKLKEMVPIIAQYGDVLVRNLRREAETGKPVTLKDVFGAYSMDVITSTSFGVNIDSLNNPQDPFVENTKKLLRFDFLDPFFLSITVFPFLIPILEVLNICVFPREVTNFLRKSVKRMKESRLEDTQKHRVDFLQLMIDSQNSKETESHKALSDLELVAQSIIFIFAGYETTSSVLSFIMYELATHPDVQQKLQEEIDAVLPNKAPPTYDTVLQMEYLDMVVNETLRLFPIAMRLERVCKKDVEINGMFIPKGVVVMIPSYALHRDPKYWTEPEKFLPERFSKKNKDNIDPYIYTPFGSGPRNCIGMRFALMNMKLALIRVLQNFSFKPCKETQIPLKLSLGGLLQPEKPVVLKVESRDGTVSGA
The target in a further series is CYP2C9 (Homo sapiens (Human), UniProt P11712). Put plainly: CYP inhibition, fluorescent, CYP2C9. Format: in vitro ADME. As to the method:
as §2

Values joined by “and” are separate entries in the source; they are usually repeats but may differ in a detail not shown here. Identical values can stand only once. Bounds are passed on as bounds.

The IC50 is the concentration needed to halve the response being measured.

Sequence of CYP2D6 (P10635 whole entry, species assumed): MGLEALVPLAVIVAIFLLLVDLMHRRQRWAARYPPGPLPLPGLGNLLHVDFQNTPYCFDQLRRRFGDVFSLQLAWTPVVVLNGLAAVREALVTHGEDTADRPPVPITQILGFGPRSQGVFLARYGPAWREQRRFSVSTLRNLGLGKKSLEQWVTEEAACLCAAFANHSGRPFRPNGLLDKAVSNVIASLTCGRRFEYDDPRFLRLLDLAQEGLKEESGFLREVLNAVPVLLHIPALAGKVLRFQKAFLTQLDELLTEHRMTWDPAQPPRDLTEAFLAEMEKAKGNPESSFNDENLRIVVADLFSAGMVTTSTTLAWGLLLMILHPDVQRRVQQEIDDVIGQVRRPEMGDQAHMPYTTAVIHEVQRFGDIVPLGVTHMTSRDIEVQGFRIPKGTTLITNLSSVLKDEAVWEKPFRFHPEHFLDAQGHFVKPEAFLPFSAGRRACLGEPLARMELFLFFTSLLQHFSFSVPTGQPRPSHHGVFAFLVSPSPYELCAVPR
Sequence of CYP2C9 (P11712 whole entry, species assumed): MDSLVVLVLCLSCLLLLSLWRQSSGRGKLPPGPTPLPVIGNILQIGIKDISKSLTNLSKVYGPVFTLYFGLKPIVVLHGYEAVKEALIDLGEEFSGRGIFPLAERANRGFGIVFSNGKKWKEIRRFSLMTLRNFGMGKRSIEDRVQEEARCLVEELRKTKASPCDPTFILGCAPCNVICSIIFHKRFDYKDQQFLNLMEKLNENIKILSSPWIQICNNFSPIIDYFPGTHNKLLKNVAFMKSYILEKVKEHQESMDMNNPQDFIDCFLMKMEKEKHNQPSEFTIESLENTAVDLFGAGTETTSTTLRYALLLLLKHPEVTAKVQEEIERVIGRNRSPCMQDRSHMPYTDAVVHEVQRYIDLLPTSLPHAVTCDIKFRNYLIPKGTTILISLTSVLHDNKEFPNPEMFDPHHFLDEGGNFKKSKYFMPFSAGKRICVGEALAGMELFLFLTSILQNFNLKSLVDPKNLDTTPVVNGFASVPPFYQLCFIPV
Sequence of CYP2C19 (P33261 whole entry, species assumed): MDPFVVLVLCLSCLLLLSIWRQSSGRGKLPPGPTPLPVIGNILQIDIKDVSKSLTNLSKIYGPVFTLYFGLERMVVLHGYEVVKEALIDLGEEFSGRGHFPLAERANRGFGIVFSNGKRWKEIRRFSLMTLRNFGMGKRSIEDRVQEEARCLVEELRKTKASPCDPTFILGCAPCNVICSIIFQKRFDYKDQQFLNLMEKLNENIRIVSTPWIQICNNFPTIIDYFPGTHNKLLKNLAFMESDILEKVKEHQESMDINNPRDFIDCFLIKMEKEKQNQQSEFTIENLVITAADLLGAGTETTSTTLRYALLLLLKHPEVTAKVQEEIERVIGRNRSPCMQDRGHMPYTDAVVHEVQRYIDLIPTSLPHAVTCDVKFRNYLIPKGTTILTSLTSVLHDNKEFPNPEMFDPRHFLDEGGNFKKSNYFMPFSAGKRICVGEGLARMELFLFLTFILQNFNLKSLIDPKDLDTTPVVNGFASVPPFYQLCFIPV
Sequence of PPARγ (P37231 204-505): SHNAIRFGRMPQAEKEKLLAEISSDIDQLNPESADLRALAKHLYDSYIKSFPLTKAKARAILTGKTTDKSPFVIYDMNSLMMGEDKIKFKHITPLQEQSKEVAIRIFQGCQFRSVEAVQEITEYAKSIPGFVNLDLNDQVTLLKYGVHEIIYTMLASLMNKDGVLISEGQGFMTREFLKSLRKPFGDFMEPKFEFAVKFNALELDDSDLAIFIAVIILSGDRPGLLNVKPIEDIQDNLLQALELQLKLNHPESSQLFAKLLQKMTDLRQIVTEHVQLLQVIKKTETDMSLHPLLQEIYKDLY

As for `O=C(c1nc2ncc(Br)cn2n1)N1C[C@H]2C[C@@H](c3ccccc3C(F)(F)F)C[C@H]2C1` [Compound 7c], the IC50 at PPARγ was greater than 100000 nM; on human RBP4, 39 nM; on RBP4-TTR interaction, 949 nM.
On to `O=C(c1nc2ncc(CCO)cn2n1)N1C[C@@H]2CN(c3cc(F)ccc3C(F)(F)F)C[C@@H]2C1` [Compound 7q], for which the “Metabolic stability in liver microsomes: % Remaining at 30 min, HLM” value in series [1] was 26%. Moreover, the half-inhibitory concentration (IC50) is greater than 100000 nM on PPARγ, 31 nM at human RBP4 and 491 nM on RBP4-TTR interaction.
Take `O=C(c1c[nH]c2ccncc12)N1C[C@H]2C[C@@H](c3ccccc3C(F)(F)F)C[C@H]2C1` [Compound 8b]: the IC50 at RBP4-TTR interaction is greater than 30000 nM.
On to `O=C(c1nc2ncccn2n1)N1C[C@H]2C[C@@H](c3ccccc3C(F)(F)C(F)(F)F)C[C@H]2C1` [Compound 9a], for which the IC50 at human RBP4 stood at 27.3 nM.
As for `O=C(c1nc2ncc(CCCl)cn2n1)N1C[C@H]2C[C@@H](c3ccccc3C(F)(F)F)C[C@H]2C1` [Compound 7n], the IC50 at PPARγ was greater than 100000 nM; on human RBP4 it was 67 nM; on RBP4-TTR interaction it was 628 nM.
The matching figures for `COCCc1cnc2nc(C(=O)N3C[C@H]4C[C@@H](c5ccccc5C(F)(F)F)C[C@H]4C3)nn2c1` [Compound 7k]: greater than 100000 nM, 67 nM and 1010 nM.
In the case of `O=C(c1nc2ncc(CCO)cn2n1)N1C[C@@H]2CN(c3ccccc3C(F)(F)F)C[C@@H]2C1` [Compound 7o], the IC50 against CYP2D6 was greater than 20000 nM; at PPARγ, greater than 100000 nM; against CYP2C19, greater than 20000 nM; at CYP3A4, greater than 20000 nM; on human RBP4 it was 22 nM; on RBP4-TTR interaction it was 257 nM.
In the case of `O=C(c1nnc2ncccn12)N1C[C@H]2C[C@@H](c3ccccc3C(F)(F)F)C[C@H]2C1` [Compound 7b], the IC50 at PPARγ was greater than 100000 nM; on human RBP4, 46 nM; on RBP4-TTR interaction, 661 nM.
Regarding `O=C(c1nc2ncccn2n1)N1C[C@H]2C[C@@H](c3ccccc3-c3ccccc3)C[C@H]2C1` [Compound 10d], on RBP4-TTR interaction, the IC50 was determined as 300 nM.
On the same count and under the same terms, under `CC(C)c1ccccc1[C@@H]1C[C@@H]2CN(C(=O)c3nc4ncccn4n3)C[C@@H]2C1` [Compound 10c] stands 40.8 nM.
`Cc1ccnc2nc(C(=O)N3C[C@H]4C[C@@H](c5ccccc5C(F)(F)F)C[C@H]4C3)nn12` [Compound 7d]: the IC50 is greater than 100000 nM on PPARγ; 122 nM on human RBP4; 306 nM and 1850 nM and 2800 nM at RBP4-TTR interaction.
With `O=C(c1nc2ncccn2n1)N1C[C@H]2C[C@@H](c3cc(F)ccc3C(F)(F)F)C[C@H]2C1` [Compound 7h], the IC50 on PPARγ was greater than 100000 nM; on human RBP4, 38 nM; on RBP4-TTR interaction it was 410 nM.
As to `O=C(c1cn2cccnc2n1)N1C[C@H]2C[C@@H](c3ccccc3OC(F)(F)F)C[C@H]2C1` [Compound 9g], the figures for the IC50 at human RBP4 and on RBP4-TTR interaction were 78.4 nM and 741 nM, respectively.
Take `O=C(c1nc2ncc(CCO)cn2n1)N1C[C@H]2C[C@@H](c3ccccc3C(F)(F)F)C[C@H]2C1` [Compound 7j]: the IC50 on CYP2D6 was greater than 100000 nM; on PPARγ it was greater than 100000 nM; against CYP2C19, greater than 100000 nM; against CYP3A4 it was greater than 100000 nM; against CYP2C9, 60000 nM; on human RBP4 it was 16 nM. For the same compound, the IC50 at RBP4-TTR interaction is 200 nM. In addition, in series [1], the “Metabolic stability in liver microsomes: % Remaining at 30 min, HLM” value is 73%.
In the case of `Cc1cnc2nc(C(=O)N3C[C@H]4C[C@@H](c5ccccc5OC(F)(F)F)C[C@H]4C3)nn2c1` [Compound 9f], the results for the IC50 on human RBP4 and on RBP4-TTR interaction were 57.1 nM and 450 nM, respectively.
The matching figures for `O=C(c1nc2nc(C(F)(F)F)ccn2n1)N1C[C@H]2C[C@@H](c3ccccc3OC(F)(F)F)C[C@H]2C1` [Compound 9i]: 443 nM and 20400 nM.
Turning to `Cc1ccn2cc(C(=O)N3C[C@H]4C[C@@H](c5ccccc5OC(F)(F)F)C[C@H]4C3)nc2c1` [Compound 9h], the IC50 on human RBP4 was 104 nM; at RBP4-TTR interaction, 2480 nM.
The matching figures for `Cc1ccn2c(C(=O)N3C[C@H]4C[C@@H](c5ccccc5OC(F)(F)F)C[C@H]4C3)nnc2n1` [Compound 9c]: 82.9 nM and 1130 nM.
On to `O=C(c1nc2ncc(CCO)cn2n1)N1C[C@H]2C[C@@H](c3cc(F)ccc3C(F)(F)F)C[C@H]2C1` [Compound 7i], for which, on RBP4-TTR interaction, the IC50 came to 494 nM.
Take `NCCc1cnc2nc(C(=O)N3C[C@H]4C[C@@H](c5ccccc5C(F)(F)F)C[C@H]4C3)nn2c1` [Compound 7m]: the IC50 was greater than 100000 nM on PPARγ, 247 nM on human RBP4 and 1470 nM at RBP4-TTR interaction.
With `Cc1ccn2c(C(=O)N3C[C@H]4C[C@@H](c5ccccc5C(F)(F)F)C[C@H]4C3)nnc2n1` [Compound 7g], the IC50 is greater than 100000 nM against CYP2D6; greater than 100000 nM at PPARγ; greater than 100000 nM on CYP2C19; greater than 100000 nM at CYP3A4; 45 nM at human RBP4; 415 nM on RBP4-TTR interaction. Moreover, the “Metabolic stability in liver microsomes: % Remaining at 30 min, HLM” value in series [1] was 61%.
For the compound `O=C(c1c[nH]c2cnccc12)N1C[C@H]2C[C@@H](c3ccccc3C(F)(F)F)C[C@H]2C1` [Compound 8a], the IC50 at RBP4-TTR interaction is greater than 30000 nM.
`Cc1ccccc1[C@@H]1C[C@@H]2CN(C(=O)c3nc4ncccn4n3)C[C@@H]2C1` [Compound 10a]: the IC50 on human RBP4 was 14800 nM.
For `O=C(c1nc2ncccn2n1)N1C[C@H]2C[C@@H](c3ccccc3OC(F)(F)F)C[C@H]2C1` [Compound 9j], on RBP4-TTR interaction, the IC50 was 551 nM and 473 nM.
For the compound `Cc1cc(C)n2nc(C(=O)N3C[C@H]4C[C@@H](c5ccccc5C(F)(F)F)C[C@H]4C3)nc2n1` [Compound 7f], the IC50 on PPARγ is greater than 100000 nM; on human RBP4 it was 108 nM; on RBP4-TTR interaction it was 4580 nM and 7440 nM.
Regarding `CC(=O)OCCc1cnc2nc(C(=O)N3C[C@H]4C[C@@H](c5ccccc5C(F)(F)F)C[C@H]4C3)nn2c1` [Compound 7l], the IC50 is greater than 100000 nM at PPARγ, 23 nM on human RBP4 and 230 nM on RBP4-TTR interaction.
As for `O=C(c1cnc2ncccn12)N1C[C@H]2C[C@@H](c3ccccc3OC(F)(F)F)C[C@H]2C1` [Compound 9d], the values for the IC50 on human RBP4 and on RBP4-TTR interaction were 88.1 nM and 1450 nM, respectively.
With `Cc1cnc2nc(C(=O)N3C[C@H]4C[C@@H](c5ccccc5C(F)(F)F)C[C@H]4C3)nn2c1` [Compound 7e], the IC50 against CYP2D6 was 12400 nM and 36000 nM; on PPARγ, greater than 100000 nM; against CYP2C19, greater than 100000 nM; against CYP2C9 it was 16000 nM and 50000 nM. Moreover, the “Metabolic stability in liver microsomes: % Remaining at 30 min, HLM” value in series [1] is 85% and 66%.

The values above are taken from patent US12168664B2, “Triazolopyrimidines, their preparation and use” (THE TRUSTEES OF COLUMBIA UNIVERSITY IN THE CITY OF NEW YORK, priority 2018, dated 2024).
